Patent US8293724B2, “Therapeutic applications of fatty acid amide hydrolase inhibitors” (The United States of America, as represented by the …, priority 2007, dated 2012)
Entries after “also recorded” stand apart in the source; their conditions may differ.

Tests used:
[1] = system: spontaneously hypertensive rat (SHR); test: Hemodynamic measurements in anesthetized spontaneously hypertensive rats; type: in vivo; conditions: for change in MAP: n=4
Description: (§1) Anandamide, the CB1 receptor antagonist AM251, and the anandamide transport inhibitors AM404 and OMDM-2 were obtained from Tocris; and the CB1 antagonist SR141716 and the CB2 antagonist SR144528 were from the National Institute on Drug Abuse drug supply program. Drugs were mixed in corn oil and sonicated for 5 minutes at 4° C. The mixture was added to 4 parts of Pluronic F68 (Sigma-Aldrich) solution (40 mg/mL) dissolved in water and sonicated to obtain a stable suspension for bolus intravenous injections.
Rats were obtained from Harlan (Indianapolis, Ind.). Male, 8- to 10-month-old SHR, age-matched male Wistar-Kyoto rats (WKY), and 8- to 10-week-old male Sprague-Dawley rats were maintained on standard rat chow and water ad libitum. Dahl salt-sensitive and salt-resistant rats (male, Rapp strain, 6 weeks old) were maintained for 4 weeks on rat chow containing either 0.12% or 8% NaCl. […] Hypertension was induced in Sprague-Dawley rats by chronic infusion of angiotensin II (60 ng/min) via an osmotic minipump (Imig et al. Hypertension 2002; 39: 690-694. Rats were used 10 to 12 days after implantation of the minipump.
(§2) For hemodynamic measurements, rats were anesthetized with pentobarbital sodium (60 mg/kg IP) and tracheotomized to facilitate breathing. Animals were placed on controlled heating pads, and core temperature, measured via a rectal probe, was maintained at 37° C. A microtip pressure-volume catheter (SPR-838; Millar Instruments) was inserted into the right carotid artery and advanced into the left ventricle (LV) under pressure control as described previously. Polyethylene cannulae (P50) were inserted into the right femoral artery and vein for measurement of mean arterial pressure (MAP) and administration of drugs, respectively. […] Heart rate, maximal LV systolic pressure, MAP, and maximal slope of systolic pressure increment (+dP/dt) were computed with a cardiac pressure-volume analysis program (PVAN2.9; Millar). Cardiac output calculated and corrected according to in vitro and in vivo volume calibrations with PVAN2.918 was normalized to body weight (cardiac index [CI]). Total peripheral resistance index (TPRI) was calculated by the equation TPRI=MAP/CI. In 3 experiments, drugs were microinjected into the fourth cerebral ventricle as described by Ramirez-Gonzalez et al. Circ Res. 1983; 53, 150-157.
(§3) Time-dependent variables were analyzed by ANOVA followed by the Dunnett post hoc test. In other cases, the Student t test was used, as appropriate. Values with P<0.05 were considered statistically significant.

[2] = system: Wistar-Kyoto rats (WKY); test: Hemodynamic measurements in normotensive Wistar-Kyoto rats; type: in vivo, rat
Description: as §1
(§4) Rats were obtained from Harlan (Indianapolis, Ind.). Male, 8- to 10-month-old SHR, age-matched male Wistar-Kyoto rats (WKY), and 8- to 10-week-old male Sprague-Dawley rats were maintained on standard rat chow and water ad libitum. Dahl salt-sensitive and salt-resistant rats (male, Rapp strain, 6 weeks old) were maintained for 4 weeks on rat chow containing either 0.12% or 8% NaCl. Systolic blood pressure monitored daily by the tail-cuff technique was 120±11 mm Hg (salt-sensitive, 0.12% NaCl), 180±14 mm Hg (salt-sensitive, 8% NaCl), and 118±9 mm Hg (salt-resistant, 8% NaCl). Hypertension was induced in Sprague-Dawley rats by chronic infusion of angiotensin II (60 ng/min) via an osmotic minipump (Imig et al. Hypertension 2002; 39: 690-694. Rats were used 10 to 12 days after implantation of the minipump.
as §2, §3

[3] = system: angiotensin II-treated hypertensive rats; test: Blood pressure in angiotensin II-treated hypertensive rats; type: in vivo, rat
Excerpt: as §4
(§5) For hemodynamic measurements, rats were anesthetized with pentobarbital sodium (60 mg/kg IP) and tracheotomized to facilitate breathing. Animals were placed on controlled heating pads, and core temperature, measured via a rectal probe, was maintained at 37° C. […] Cardiac output calculated and corrected according to in vitro and in vivo volume calibrations with PVAN2.918 was normalized to body weight (cardiac index [CI]). Total peripheral resistance index (TPRI) was calculated by the equation TPRI=MAP/CI. […]

[4] = system: normotensive controls (Sprague-Dawley rats); test: Blood pressure in normotensive controls of angiotensin II-treated rats; type: in vivo, rat; conditions: URB597, normotensive controls of angiotensin II-treated rats
Excerpt: as §4, §5

[5] = molecular target: T1, FAAH (Mus musculus, UniProt O08914); test: FAAH activity in brain and liver homogenates following in vivo administration; set-up: species or system mice; conditions: mouse
T1 construct: the brain and liver removed, and tissue homogenates prepared as described above; from tissue; host or cells: mouse brain and liver homogenates after in vivo dosing
T1 sequence (O08914 1-579): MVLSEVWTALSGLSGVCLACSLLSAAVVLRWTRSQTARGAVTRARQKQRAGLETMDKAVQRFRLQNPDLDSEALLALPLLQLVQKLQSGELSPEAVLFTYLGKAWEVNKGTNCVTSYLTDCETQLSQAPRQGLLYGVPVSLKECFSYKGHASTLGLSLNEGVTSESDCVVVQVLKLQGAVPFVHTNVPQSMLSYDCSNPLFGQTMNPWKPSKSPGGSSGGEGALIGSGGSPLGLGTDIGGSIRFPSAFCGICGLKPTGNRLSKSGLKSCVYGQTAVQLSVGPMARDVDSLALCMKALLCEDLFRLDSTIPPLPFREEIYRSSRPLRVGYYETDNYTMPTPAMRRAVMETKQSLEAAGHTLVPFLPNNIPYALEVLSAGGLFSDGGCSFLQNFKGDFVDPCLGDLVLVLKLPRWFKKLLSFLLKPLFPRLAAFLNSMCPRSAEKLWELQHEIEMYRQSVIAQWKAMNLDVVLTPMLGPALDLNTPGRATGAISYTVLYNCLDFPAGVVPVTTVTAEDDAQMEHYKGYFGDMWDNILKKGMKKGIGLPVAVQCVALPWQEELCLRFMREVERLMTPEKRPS
Description: For the experiments illustrated in FIG. 3, FAAH activity was assessed through a different method not requiring TLC separation, as described by Jonsson et al: Br. J. Pharmacol. 133:1263-1275, 1997. […] The mice were sacrificed one hour later, the brain and liver removed, and tissue homogenates prepared as described above. [^3H]Anandamide labeled on the ethanolamide moiety was added to the homogenate and incubated at 37° C. for 10 min. The homogenate was then extracted twice with chloroform:methanol 1:1 and the radioactivity in the aqueous phase (containing the released ethanolamide) was counted.

[6] = system: male DIO mice (wild-type C57Bl6/J on high-fat diet); test: Intraperitoneal glucose tolerance test in wild-type mice with diet-induced obesity; type: in vivo; conditions: URB597 10 mg/kg i.p., 60 min before glucose 1.5 g/kg i.p., 10 mg/kg
Description: (§6) Male C57Bl6/J mice, wild-type or liver-specific CB1 receptor knockout, were kept on a diet containing 60% of calories as fat (Research Diets Inc) for 14 weeks, by which time both strains have become fat due to increased adipose mass. […] Sixty minutes later the mice received 1.5 g/kg glucose i.p. and blood glucose levels were monitored for 2 hours.

[7] = system: liver-specific CB1 receptor knockout mice; test: Intraperitoneal glucose tolerance test in liver-specific CB1 receptor knockout mice on high-fat diet; type: in vivo; conditions: URB597 10 mg/kg i.p., liver-specific CB1 knockout mice on HFD
Description: as §6

[8] = Non-fasting blood glucose in SHR and WKY; conditions: URB597 10 mg/kg i.p., n=4

## CCCCC/C=C\C/C=C\C/C=C\C/C=C\CCCC(=O)NCCO [anandamide]
[1]; SHR
  hypotensive response after pretreatment with the VR1 antagonist capsazepine: not affected by capsazepine pretreatment
[1]; anandamide 10 mg/kg, SHR
  CI: decreases
  TPRI: decreases
  blood pressure: sustained decrease in blood pressure to near normotensive levels
  cardiac contractility (dP/dt, LV systolic pressure): decreases
  heart rate: decreases
[2]; anandamide 10 mg/kg
  blood pressure: modest and short-lasting
  cardiac contractility: modest and short-lasting
  duration of decrease in blood pressure and cardiac contractility: < 5 min
  other hemodynamic changes: without other hemodynamic changes
[3]; rats with angiotensin II-induced hypertension
  anandamide-induced hypotension: potentiated

## CCCCCCC(C)(C)c1cc(O)c2c(c1)OC(C)(C)[C@@H]1CC=C(CO)C[C@@H]21 [HU210]
[1]; SHR, n=6
  hypotensive EC50: 1.5 µg/kg
  maximal hypotensive effect: −108±11 mm Hg
[2]; n=6
  hypotensive EC50: 5.9 µg/kg
  maximal hypotensive effect: −39±14 mm Hg

## CCCCCCCC/C=C\CCCCCCCC(=O)N[C@@H](CO)Cc1ccc(O)cc1 [OMDM-2]
[1]; OMDM-2 5 mg/kg, SHR
  change in MAP: −39±10 mm Hg
[2]; OMDM-2 5 mg/kg
  change in MAP: no significant change

## NC(=O)c1cccc(-c2cccc(OC(=O)NC3CCCCC3)c2)c1 [URB597]
[1]; Rattus norvegicus, dose-response studies, n=3, read-out: hypotensive ED50
  ED50: 1.7 mg/kg
[1]; SHR
  hypotensive response after pretreatment with the VR1 antagonist capsazepine: not affected by capsazepine pretreatment
[1]; URB597 10 mg/kg IV, SHR
  LV systolic pressure: decreased
  TPRI: decreased
  arterial pressure: decreased arterial pressure to normotensive levels
  dP/dt: decreased
[1]; URB597, SHR
  cardiac contractility (pressure/volume relationship): decrease in cardiac contractility
[1]; hypertensive animals, CB1 antagonists
  effects of URB597 in the hypertensive animals in the presence of CB1 antagonists: could be prevented by CB1 antagonists
[2]; URB597 10 mg/kg IV
  hemodynamic effects: no detectable hemodynamic effects
[3]; URB597, angiotensin II-treated hypertensive rats
  blood pressure: lowered blood pressure
[4]
  blood pressure: not in their normotensive controls
[5]; in vivo, 10 mg/kg
  inhibition of FAAH activity in the liver: significantly inhibits FAAH activity in the liver
  inhibition of FAAH in brain: near complete inhibition
[5]; read-out: inhibition of FAAH in liver
  inhibition at 10 mg/kg: > 90%
[6]
  glucose intolerance: marked increase in their glucose intolerance; also recorded: increases glucose intolerance
[7]
  glucose tolerance: failed to affect glucose tolerance
[8]; SHR, from 104.0±7.4
  non-fasting blood glucose after treatment: 144.0 ± 9.6 mg/dL
[8]; WKY, from 90.0±7.2
  non-fasting blood glucose after treatment: 135.3 ± 12.9 mg/dL

## CCCCC/C=C\C/C=C\C/C=C\C/C=C\CCCC(=O)Nc1ccc(O)cc1 [AM404]
[1]; AM404 10 mg/kg, SHR
  change in MAP: −63±19 mm Hg
[2]; AM404 10 mg/kg
  change in MAP: no significant change
